Assay results: ChEMBL document CHEMBL1649238, “Natural polymorphisms of human immunodeficiency virus type 1 integrase and inherent susceptibilities to a panel of integrase inhibitors” (2009)

Key:
Type in all cases: functional
[1] = test system: Human immunodeficiency virus 1; test: (§1) Antiviral activity against HIV1 R-31 harboring integrase D10E, E11D, V32I, V37I, V72I, L101I, T112I, A124N, T125A, K173R, A205S, Q216H, N222K, S230N, N232D mutant gene infected in human TZM-bl cells assessed as beta-galactosidase expression after 48 hrs by microplate luminometry relative to HIV1 R7/3 expressing wild type integrase enzyme
[2] = test system: Human immunodeficiency virus 1; test: as §1, with “F-15” for “R-31”, “K42T,” for “E11D, V32I, V37I, V72I, L101I, T112I,”, “V126L, M154L, V201I, T206S, N232D, V281S” for “K173R, A205S, Q216H, N222K, S230N, N232D”
[3] = test system: Human immunodeficiency virus 1; test: (§2) Antiviral activity against HIV1 B-28 harboring integrase D10E, R20K, S39C, V72I, A124N, T125V, V201I, N232D mutant gene infected in human TZM-bl cells assessed as beta-galactosidase expression after 48 hrs by microplate luminometry relative to HIV1 R7/3 expressing wild type integrase enzyme
[4] = test system: Human immunodeficiency virus 1; test: Antiviral activity against HIV1 B-27 harboring integrase D10E, R20K, S39C, V72I, A124N, T125M, V201I, N232D mutant gene infected in human TZM-bl cells assessed as beta-galactosidase expression after 48 hrs by microplate luminometry relative to HIV1 R7/3 expressing wild type integrase enzyme
[5] = test system: Human immunodeficiency virus 1; test: as §2, with “N-19” for “B-28”, “E11D, D25E, V31I, I113V, S119G,” for “R20K, S39C, V72I,”, “V151I,” for “T125V,”
[6] = test system: Human immunodeficiency virus 1; test: Antiviral activity against HIV1 harboring integrase N155H mutant infected in human TZM-bl cells assessed as beta-galactosidase expression after 48 hrs by microplate luminometry relative to HIV1 R7/3 expressing wild type integrase enzyme relative to HIV1 R7/3 expressing wild type integrase enzyme
[7] = test system: Human immunodeficiency virus 1; test: Antiviral activity against HIV1 K-2 harboring integrase D10E, R20K, I113V, A124T, K188R, V201I, T206S, N232D, D278G mutant gene infected in human TZM-bl cells assessed as beta-galactosidase expression after 48 hrs by microplate luminometry relative to HIV1 R7/3 expressing wild type integrase enzyme
[8] = test system: Human immunodeficiency virus 1; test: Antiviral activity against HIV1 A-6 harboring integrase D10E, V72I, A124T, M154I, R199K, V201I, N232D mutant gene infected in human TZM-bl cells assessed as beta-galactosidase expression after 48 hrs by microplate luminometry relative to HIV1 R7/3 expressing wild type integrase enzyme
[9] = test system: Human immunodeficiency virus 1; test: Antiviral activity against HIV1 harboring integrase T97A mutant infected in human TZM-bl cells assessed as beta-galactosidase expression after 48 hrs by microplate luminometry relative to HIV1 R7/3 expressing wild type integrase enzyme relative to HIV1 R7/3 expressing wild type integrase enzyme
[10] = test system: Human immunodeficiency virus 1; test: Antiviral activity against HIV1 R-6 harboring integrase D10E, E11D, S17N, A23V, L28I, P30A, V72I, L101I, S119T, T122I, A124T, V201I, N222D, N232D, S230G, D253E, N254G mutant gene infected in human TZM-bl cells assessed as beta-galactosidase expression after 48 hrs by microplate luminometry relative to HIV1 R7/3 expressing wild type integrase enzyme
[11] = test system: Human immunodeficiency virus 1; test: Antiviral activity against HIV1 G-4 harboring integrase K7R, D10E, S39C, L74I, K156R, K215N, T218I, N232D, L234I mutant gene infected in human TZM-bl cells assessed as beta-galactosidase expression after 48 hrs by microplate luminometry relative to HIV1 R7/3 expressing wild type integrase enzyme
[12] = test system: Human immunodeficiency virus 1; test: Antiviral activity against HIV1 G-8 harboring integrase D10E, L101I, S119T, A124T, M154L, V201I, N232D, S283G mutant gene infected in human TZM-bl cells assessed as beta-galactosidase expression after 48 hrs by microplate luminometry relative to HIV1 R7/3 expressing wild type integrase enzyme

| SMILES | Ratio EC50 [1] | Ratio EC50 [2] | Ratio EC50 [3] | Ratio EC50 [4] | Ratio EC50 [5] | Ratio EC50 [6] | Ratio EC50 [7] | Ratio EC50 [8] | Ratio EC50 [9] | Ratio EC50 [10] | Ratio EC50 [11] | Ratio EC50 [12] |
| --- | --- | --- | --- | --- | --- | --- | --- | --- | --- | --- | --- | --- |
| CNC(=O)c1cc(F)ccc1CNC(=O)c1nc(N2CCCCS2(=O)=O)c2cccnc2c1O | 0.995 | 0.656 | 0.767 | 0.627 | 0.456 | 4.295 | 0.448 | 0.5 | 0.865 | 1.067 | 0.565 | 0.425 |
| O=C(NCc1ccc(F)cc1)c1nc(N2CCCCS2(=O)=O)c2cccnc2c1O | 1.268 | 0.505 | 0.973 | 1.306 | 1.416 | 12.647 | 0.468 | 0.863 | 6.067 | 1.175 | 1.3 | 0.488 |
| CN(C)C(=O)C(=O)N(C)c1nc(C(=O)NCc2ccc(F)cc2)c(O)c2ncccc12 | 1.589 | 0.33 | 0.673 | 0.966 | 0.927 | 2.692 | 0.461 | 0.836 | 3.767 | 0.412 | 0.643 | 0.515 |
| CN(C)C(=O)C(=O)NC(C)(C)c1nc(C(=O)NCc2ccc(F)cc2)c(O)c(=O)n1C | 1.005 | 0.329 | 0.766 | 0.592 | 0.998 | 0.78 | 0.394 | 0.946 | 2 | 0.644 | 0.847 | 0.286 |
